Measured values reported in patent US10532085B2, “Methods for increasing intracellular activity of Hsp70” (Orphazyme A/S, priority 2010, dated 2020).

Columns and labels:
[1] = system: primary fibroblasts from Mucopolysaccharidosis type IIIA patient; experiment: Lysosomal cross-sectional area, laser confocal microscopy, MPS IIIA fibroblasts; format: cell-based, human; conditions: Alexa Fluor 488 labelled, added for 48 h; GM00879
Method: FIG. 8: Test of rhHSP70 in non-sphingolipidosis. rhHSP70 labelled with Alexa Fluor 488 (for visualization of uptake) was added for 48 h to primary fibroblasts from Mucopolysaccharidosis type IIIA (aka Sanfilippo type IIIA) patient (Coriell Cell Repository ID: GM00879). Read-out: lysosomal cross-sectional area (Primary cellular pathology), performed by laser confocal microscopy.

[2] = system: U-2-OS osteosarcoma cells; experiment: Uptake and localization of fluorochrome-labeled recombinant protein; format: cell-based, Human; conditions: 300 nM rHsp70-AF488, 24 h
Method: FIG. 2: Lysosomal Hsp70 stabilizes lysosomal membranes. (a) Representative confocal images of U-2-OS cells incubated with 300 nM rHsp70-AF488 (green) for 24 h, fixed and stained for lysosomal integral membrane protein-1 (LIMP-1; red). For co-localization with other organelle markers see FIG. 3. (b) U-2-OS cells were incubated with 300 nM rHsp70-AF488 for 24 h before quantification of rHsp70-AF488 in membranes (memb.) and supernatant (sup.) obtained by repeated freeze/thaw cycles and centrifugation the light membrane fraction (LMF). […] (c) Representative still images of U-2-OS cells exposed to photo-oxidation (acridine orange and blue light). The loss of lysosomal integrity is visualized by the loss of red and increase in green staining. (d and e) U-2-OS cells were incubated with indicated recombinant proteins (300 nM) for 24 h, and analyzed for lysosomal integrity upon photo-oxidation. When indicated, cells were treated with indicated siRNAs for 48 h prior to the addition of recombinant proteins (e). The values represent means±SD (standard deviation) for three (d) or five (e) independent experiments. Representative immunoblots of indicated proteins from U-2-OS cells left untreated or treated with control or Hsp70 siRNAs are shown on the right. Scale bars: 20 μm (a and c).
FIG. 3: Colocalization of endocytosed rHsp70-AF488 with lysosomes. […]

[3] = Liposome 90° light scattering, BMP; format: binding; conditions: pH 6.0 vs pH 7.4
Description: Thus, we investigated the interaction of Hsp70 with palmitoyl-oleoyl-phosphatidylcholine (POPC) large unilamellar vesicles (LUVs) containing various membrane-associated anionic lipids, i.e. palmitoyl-oleoyl-phosphatidylserine (POPS; primarily in plasma membrane), cardiolipin (primarily mitochondrial) and BMP (primarily in late endosomes/lysosomes). Taking into account the increasingly acidic milieu of the endo-lysosomal compartment upon maturation to lysosomes, we compared the protein-lipid interactions in neutral (pH 7.4) and acidic (pH 6.0) conditions. […] As reported earlier for POPS, all negatively charged lipids enhanced the binding of rHsp70 to the liposomes at neutral pH approximately 4-fold irrespective of the charge density on the liposome surface (ranging from −1 to −2).
The tryptophan fluorescence spectra (RFI) and liposome 90° light scattering (RSI) were analyzed in a HEPES buffer (20 mM HEPES, 0.1 mM EDTA, pH 7.4 or 6.0 as indicated) employing LUVs consisting of indicated lipids essentially as described in the art. For the RFI, LUVs were added in 10 μM aliquots and spectra recorded after a 20 min stabilization period. For the RSI, recombinant proteins were added in 0.12 nmol aliquots.

NPC−/− mice = experiment: NPC1 in vivo pilot study: video recording and observation of condition; conditions: 10 mg/kg IP three times per week
Method: Eight treated (rHSP70) NPC^−/− versus eight control (PBS only) NPC^−/− controls. Mice were treated IP three times per week with either 10 mg/kg of rHSP70 or vehicle alone (PBS) from 3 weeks of age. Three control and three treated mice were sacrificed at 7 or 9 weeks old (i.e. after 4 or 6 weeks of treatment, respectively). Organs were perfused (PBS), weighed and frozen for biochemical and immunohistochemical analysis.
Due to the small number of animals remaining after the 7 and 9 week time points we were unable to draw any conclusions regarding increased survival.

[4] = video recording at 9 and 10 weeks

## rHsp70: recombinant (human) heat shock protein 70; in some tests labelled with Alexa Fluor 488
[1]
  lysosomal cross-sectional area (primary cellular pathology): effectively reverts the lysosomal primary pathology
[2]
  uptake, co-localization and membrane binding: effective uptake of rHsp70, its specific co-localization with late endosomal and lysosomal markers and binding to lysosomal membranes
[3]
  binding to BMP at acidic pH as compared to neutral pH: ~20 times
NPC−/− mice
  condition at the point of culling: deteriorated quite badly within the space of a few days
NPC−/− mice; [4]
  activity and tremor on video: more active and had increased tremor
  size and coat condition: larger, with better coat condition
